In patent US8247211B2, “Glycopeptide antibiotics” (American Cyanamid Company, priority 2001, dated 2012):

Legend:
Assay in all cases: In vitro antibacterial evaluation: minimum inhibitory concentration (MIC), broth dilution method
Format in all cases: cell-based
Enterococcus sp. = test system: Enterococcus sp.
Procedure, shortened: (§1)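 First, organisms are seeded at 5×10^5 CFU/mL into Muller-Hinton II […]. Next, antibiotic is applied across 64-0.06 μg/mL by broth dilution (NCCLS M7-A2). Finally, the lowest inhibitory concentration is recorded as MIC.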

Escherichia coli [1] = test system: Escherichia coli
Procedure, shortened: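 Broth dilution per NCCLS M7-A2 in Muller-Hinton II […], inoculum 5×10^5 CFU/mL, antibiotic tested over 64-0.06 μg/mL. MIC is taken as the lowest concentration that inhibits growth. Panel includes recent clinical isolates resistant to methicillin, penicillin and/or vancomycin.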

Staphylococcus sp. = conditions: 18 hours at 35° C.
Procedure, shortened: as §1

Streptococcus sp. = conditions: 18 hours at 35° C.
Procedure, shortened: as §1

Escherichia coli [2] = test system: Escherichia coli; remark: listed apart in the source
[3] = Enterococcus faecalis (ATCC 29212)
[4] = Enterococcus faecalis (GC 2242), 18 hours at 35° C.
[5] = Enterococcus faecalis (GC 4552), 18 hours at 35° C.
[6] = Enterococcus faecalis (GC 4553)
[7] = Enterococcus faecalis (GC 4554)
[8] = broth dilution, 18 hours at 35° C., strain ATCC 29212
[9] = broth dilution, 18 hours at 35° C., strain GC 2242
[10] = broth dilution, 18 hours at 35° C., strain GC 2243
[11] = broth dilution, 18 hours at 35° C., strain GC 4552
[12] = broth dilution, 18 hours at 35° C., strain GC 4553
[13] = broth dilution, 18 hours at 35° C., strain GC 4554
[14] = broth dilution, 18 hours at 35° C., strain GC 4556
[15] = broth dilution, 18 hours at 35° C., strain GC 4557
[16] = broth dilution, 18 hours at 35° C., strain GC 4558
[17] = Staphylococcus aureus (ATCC 29213)
[18] = Staphylococcus aureus (GC 1131)
[19] = Staphylococcus aureus (GC 4541)
[20] = Staphylococcus aureus (GC 4542)
[21] = Staphylococcus aureus (GC 4544)
[22] = Staphylococcus aureus (GC 4545)
[23] = broth dilution, strain ATCC 29213
[24] = Streptococcus agalactiae (GC 4564)
[25] = Streptococcus pneumoniae (GC 4565)

Substance: α-O-[(Benzylamino)carbonyl]-cyclo[glycyl-β-methylphenylalanyl-O-(4-O-hexopyranosylhexopyranosyl)tyrosyl-3-(2-iminoimidazolidin-4-yl)seryl-3-(3-hexopyranosyl-2-iminoimidazolidin-4-yl)serylseryl] [Example 257a]
- MIC Enterococcus avium (GC 4558) (Enterococcus sp.; Enterococcus avium (GC 4558)): >0.5 µg/mL
- MIC Enterococcus faecalis (ATCC 29212) (Enterococcus sp.; [3]): >0.5 µg/mL
- MIC Enterococcus faecalis (GC 2242) (Enterococcus sp.; [4]): >0.5 µg/mL
- MIC Enterococcus faecalis (GC 2691) (Enterococcus sp.; Enterococcus faecalis (GC 2691), 18 hours at 35° C.): 0.5 µg/mL
- MIC Enterococcus faecalis (GC 3059) (Enterococcus sp.; Enterococcus faecalis (GC 3059), 18 hours at 35° C.): >0.5 µg/mL
- MIC Enterococcus faecalis (GC 4552) (Enterococcus sp.; [5]): >0.5 µg/mL
- MIC Enterococcus faecalis (GC 4553) (Enterococcus sp.; [6]): >0.5 µg/mL
- MIC Enterococcus faecalis (GC 4554) (Enterococcus sp.; [7]): >0.5 µg/mL
- MIC Enterococcus faecalis (GC 6189) (Enterococcus sp.; Enterococcus faecalis (GC 6189)): >0.5 µg/mL
- MIC Enterococcus faecium (GC 2243) (Enterococcus sp.; Enterococcus faecium (GC 2243)): >32 µg/mL
- MIC Enterococcus faecium (GC 4556) (Enterococcus sp.; Enterococcus faecium (GC 4556)): >32 µg/mL
- MIC Enterococcus faecium (GC 4557) (Enterococcus sp.; Enterococcus faecium (GC 4557)): 8 µg/mL
- MIC Enterococcus faecalis (ATCC 29212) (Enterococcus sp.; [8]): >0.5 µg/mL
- MIC Enterococcus faecalis (GC 2242) (Enterococcus sp.; [9]): >0.5 µg/mL
- MIC Enterococcus faecium (GC 2243) (Enterococcus sp.; [10]): >32 µg/mL
- MIC Enterococcus faecalis (GC 2691) (Enterococcus sp.; broth dilution, 18 hours at 35° C., strain GC 2691): 0.5 µg/mL
- MIC Enterococcus faecalis (GC 3059) (Enterococcus sp.; broth dilution, 18 hours at 35° C., strain GC 3059): >0.5 µg/mL
- MIC Enterococcus faecalis (GC 4552) (Enterococcus sp.; [11]): >0.5 µg/mL
- MIC Enterococcus faecalis (GC 4553) (Enterococcus sp.; [12]): >0.5 µg/mL
- MIC Enterococcus faecalis (GC 4554) (Enterococcus sp.; [13]): >0.5 µg/mL
- MIC Enterococcus faecium (GC 4556) (Enterococcus sp.; [14]): >32 µg/mL
- MIC Enterococcus faecium (GC 4557) (Enterococcus sp.; [15]): 8 µg/mL
- MIC Enterococcus avium (GC 4558) (Enterococcus sp.; [16]): >0.5 µg/mL
- MIC Enterococcus faecalis (GC 6189) (Enterococcus sp.; broth dilution, 18 hours at 35° C., strain GC 6189): >0.5 µg/mL
- MIC Escherichia coli (GC 4559) (Escherichia coli [1]): >0.5 µg/mL
- MIC Escherichia coli (GC 4560) (Escherichia coli [1]): 0.5 µg/mL
- MIC Coagulase Negative Staphylococcus (GC 4547) (Staphylococcus sp.): 8 µg/mL
- MIC Coagulase Negative Staphylococcus (GC 4548) (Staphylococcus sp.): 8 µg/mL
- MIC Coagulase Negative Staphylococcus (GC 4549) (Staphylococcus sp.): 8 µg/mL
- MIC Coagulase Negative Staphylococcus (GC 4551) (Staphylococcus sp.): 32 µg/mL
- MIC Coagulase Negative Staphylococcus (GC 6257) (Staphylococcus sp.; Coagulase Negative Staphylococcus (GC 6257)): 4 µg/mL
- MIC Staphylococcus aureus (ATCC 29213) (Staphylococcus sp.; [17]): 0.5 µg/mL
- MIC Staphylococcus aureus (GC 1131) (Staphylococcus sp.; [18]): 0.5 µg/mL
- MIC Staphylococcus aureus (GC 3051) (Staphylococcus sp.; Staphylococcus aureus (GC 3051)): 0.5 µg/mL
- MIC Staphylococcus aureus (GC 3053) (Staphylococcus sp.; Staphylococcus aureus (GC 3053)): 0.5 µg/mL
- MIC Staphylococcus aureus (GC 4541) (Staphylococcus sp.; [19]): 0.5 µg/mL
- MIC Staphylococcus aureus (GC 4542) (Staphylococcus sp.; [20]): 0.5 µg/mL
- MIC Staphylococcus aureus (GC 4544) (Staphylococcus sp.; [21]): 0.5 µg/mL
- MIC Staphylococcus aureus (GC 4545) (Staphylococcus sp.; [22]): 0.5 µg/mL
- MIC Staphylococcus aureus-SMITH (GC 4543) (Staphylococcus sp.): 0.5 µg/mL
- MIC Staphylococcus haemolyticus (GC 4546) (Staphylococcus sp.): 8 µg/mL
- MIC Staphylococcus aureus (ATCC 29213) (Staphylococcus sp.; [23]): 0.5 µg/mL
- MIC Staphylococcus aureus (GC 1131) (Staphylococcus sp.; broth dilution, strain GC 1131): 0.5 µg/mL
- MIC Staphylococcus aureus (GC 3051) (Staphylococcus sp.; broth dilution, strain GC 3051): 0.5 µg/mL
- MIC Staphylococcus aureus (GC 3053) (Staphylococcus sp.; broth dilution, strain GC 3053): 0.5 µg/mL
- MIC Staphylococcus aureus (GC 4541) (Staphylococcus sp.; broth dilution, strain GC 4541): 0.5 µg/mL
- MIC Staphylococcus aureus (GC 4542) (Staphylococcus sp.; broth dilution, strain GC 4542): 0.5 µg/mL
- MIC Staphylococcus aureus (GC 4544) (Staphylococcus sp.; broth dilution, strain GC 4544): 0.5 µg/mL
- MIC Staphylococcus aureus (GC 4545) (Staphylococcus sp.; broth dilution, strain GC 4545): 0.5 µg/mL
- MIC Streptococcus agalactiae (GC 4564) (Streptococcus sp.; [24]): 8 µg/mL
- MIC Streptococcus pneumoniae (ATCC 6301) (Streptococcus sp.; Streptococcus pneumoniae (ATCC 6301)): 1 µg/mL
- MIC Streptococcus pneumoniae (GC 1894) (Streptococcus sp.; Streptococcus pneumoniae (GC 1894)): 1 µg/mL
- MIC Streptococcus pneumoniae (GC 4565) (Streptococcus sp.; [25]): 4 µg/mL
- MIC Streptococcus pyogenes (GC 4563) (Streptococcus sp.; Streptococcus pyogenes (GC 4563)): 0.12 µg/mL
- MIC Streptococcus pneumoniae (ATCC 6301) (Streptococcus sp.; broth dilution, strain ATCC 6301): 1 µg/mL
- MIC Streptococcus pneumoniae (GC 1894) (Streptococcus sp.; broth dilution, strain GC 1894): 1 µg/mL
- MIC Streptococcus pyogenes (GC 4563) (Streptococcus sp.; broth dilution, strain GC 4563): 0.12 µg/mL
- MIC Streptococcus agalactiae (GC 4564) (Streptococcus sp.; broth dilution, strain GC 4564): 8 µg/mL
- MIC Streptococcus pneumoniae (GC 4565) (Streptococcus sp.; broth dilution, strain GC 4565): 4 µg/mL
- MIC Escherichia coli (ATCC 25922) (Escherichia coli [2]): >0.5 µg/mL

Substance: α-O-[(Cyclohexylamino)carbonyl]-cyclo[glycyl-β-methylphenylalanyl-O-(4-O-hexopyranosylhexopyranosyl)tyrosyl-3-(2-iminoimidazolidin-4-yl)seryl-3-(3-hexopyranosyl-2-iminoimidazolidin-4-yl)serylseryl] [Example 256]
- MIC Enterococcus avium (GC 4558) (Enterococcus sp.; Enterococcus avium (GC 4558)): >64 µg/mL
- MIC Enterococcus faecalis (ATCC 29212) (Enterococcus sp.; [3]): >64 µg/mL
- MIC Enterococcus faecalis (GC 2242) (Enterococcus sp.; [4]): >64 µg/mL
- MIC Enterococcus faecalis (GC 4552) (Enterococcus sp.; [5]): >64 µg/mL
- MIC Enterococcus faecalis (GC 4553) (Enterococcus sp.; [6]): >64 µg/mL
- MIC Enterococcus faecalis (GC 4554) (Enterococcus sp.; [7]): >64 µg/mL
- MIC Enterococcus faecium (GC 2243) (Enterococcus sp.; Enterococcus faecium (GC 2243)): >64 µg/mL
- MIC Enterococcus faecium (GC 4556) (Enterococcus sp.; Enterococcus faecium (GC 4556)): >64 µg/mL
- MIC Enterococcus faecium (GC 4557) (Enterococcus sp.; Enterococcus faecium (GC 4557)): 64 µg/mL
- MIC Enterococcus faecalis (ATCC 29212) (Enterococcus sp.; [8]): >64 µg/mL
- MIC Enterococcus faecalis (GC 2242) (Enterococcus sp.; [9]): >64 µg/mL
- MIC Enterococcus faecium (GC 2243) (Enterococcus sp.; [10]): >64 µg/mL
- MIC Enterococcus faecalis (GC 4552) (Enterococcus sp.; [11]): >64 µg/mL
- MIC Enterococcus faecalis (GC 4553) (Enterococcus sp.; [12]): >64 µg/mL
- MIC Enterococcus faecalis (GC 4554) (Enterococcus sp.; [13]): >64 µg/mL
- MIC Enterococcus faecium (GC 4556) (Enterococcus sp.; [14]): >64 µg/mL
- MIC Enterococcus faecium (GC 4557) (Enterococcus sp.; [15]): 64 µg/mL
- MIC Enterococcus avium (GC 4558) (Enterococcus sp.; [16]): >64 µg/mL
- MIC Escherichia coli (GC 4559) (Escherichia coli [1]): >64 µg/mL
- MIC Escherichia coli (GC 4560) (Escherichia coli [1]): 32 µg/mL
- MIC Coagulase Negative Staphylococcus (GC 4547) (Staphylococcus sp.): >64 µg/mL
- MIC Coagulase Negative Staphylococcus (GC 4548) (Staphylococcus sp.): >64 µg/mL
- MIC Coagulase Negative Staphylococcus (GC 4549) (Staphylococcus sp.): >64 µg/mL
- MIC Coagulase Negative Staphylococcus (GC 4551) (Staphylococcus sp.): >64 µg/mL
- MIC Coagulase Negative Staphylococcus (ID-3941) (Staphylococcus sp.; Coagulase Negative Staphylococcus (ID-3941)): >64 µg/mL
- MIC Staphylococcus aureus (ATCC 29213) (Staphylococcus sp.; [17]): >64 µg/mL
- MIC Staphylococcus aureus (GC 1131) (Staphylococcus sp.; [18]): >64 µg/mL
- MIC Staphylococcus aureus (GC 4541) (Staphylococcus sp.; [19]): >64 µg/mL
- MIC Staphylococcus aureus (GC 4542) (Staphylococcus sp.; [20]): >64 µg/mL
- MIC Staphylococcus aureus (GC 4544) (Staphylococcus sp.; [21]): >64 µg/mL
- MIC Staphylococcus aureus (GC 4545) (Staphylococcus sp.; [22]): >64 µg/mL
- MIC Staphylococcus aureus-SMITH (GC 4543) (Staphylococcus sp.): >64 µg/mL
- MIC Staphylococcus haemolyticus (GC 4546) (Staphylococcus sp.): >64 µg/mL
- MIC Staphylococcus aureus (ATCC 29213) (Staphylococcus sp.; [23]): >64 µg/mL
- MIC Staphylococcus aureus (GC 1131) (Staphylococcus sp.; broth dilution, strain GC 1131): >64 µg/mL
- MIC Staphylococcus aureus (GC 4541) (Staphylococcus sp.; broth dilution, strain GC 4541): >64 µg/mL
- MIC Staphylococcus aureus (GC 4542) (Staphylococcus sp.; broth dilution, strain GC 4542): >64 µg/mL
- MIC Staphylococcus aureus (GC 4544) (Staphylococcus sp.; broth dilution, strain GC 4544): >64 µg/mL
- MIC Staphylococcus aureus (GC 4545) (Staphylococcus sp.; broth dilution, strain GC 4545): >64 µg/mL
- MIC Streptococcus agalactiae (GC 4564) (Streptococcus sp.; [24]): >64 µg/mL
- MIC Streptococcus pneumoniae (GC 4565) (Streptococcus sp.; [25]): >64 µg/mL
- MIC Streptococcus pyogenes (ID-3187) (Streptococcus sp.; Streptococcus pyogenes (ID-3187)): 64 µg/mL
- MIC Streptococcus agalactiae (GC 4564) (Streptococcus sp.; broth dilution, strain GC 4564): >64 µg/mL
- MIC Streptococcus pneumoniae (GC 4565) (Streptococcus sp.; broth dilution, strain GC 4565): >64 µg/mL
- MIC Streptococcus pyogenes (ID-3187) (Streptococcus sp.; broth dilution, strain ID-3187): 64 µg/mL
- MIC Escherichia coli (ATCC 25922) (Escherichia coli [2]): >64 µg/mL
